Test results as given in PMC9607427, “Novel 7-Chloro-(4-thioalkylquinoline) Derivatives: Synthesis and Antiproliferative Activity through Inducing Apoptosis and DNA/RNA Damage” (Pharmaceuticals, 2022).

Compound: O=C(OCCCSc1ccnc2cc(Cl)ccc12)c1cccc(Cl)c1 [Compound 33, 3-[(7-Chloroquinolin-4-yl)sulfanyl]propyl-3-chlorobenzoate]
- melting point: 96 to 98 °C

Compound: COc1cc(OC)c(C(=O)OCCSc2ccnc3cc(Cl)ccc23)cc1OC [Compound 13, 2-[(7-Chloroquinolin-4-yl)sulfanyl]ethyl 2,4,5-trimethoxybenzoate]
- melting point: 134 to 135 °C

Compound: COc1cccc(C(=O)OCCSc2ccnc3cc(Cl)ccc23)c1OC [Compound 6, 2-[(7-Chloroquinolin-4-yl)sulfanyl]ethyl 2,3-dimethoxybenzoate]
- melting point: 108 to 109 °C

Compound: COc1ccc(C(=O)OCCSc2ccnc3cc(Cl)ccc23)cc1[N+](=O)[O-] [Compound 17, 2-[(7-Chloroquinolin-4-yl)sulfanyl]ethyl 4-methoxy-3-nitrobenzoate]
- melting point: 171 to 173 °C

Compound: COc1cc(OC)cc(C(=O)OCCSc2ccnc3cc(Cl)ccc23)c1 [Compound 11, 2-[(7-Chloroquinolin-4-yl)sulfanyl]ethyl 3,5-dimethoxybenzoate]
- melting point: 100 to 102 °C

Compound: O=C(OCCSc1ccnc2cc(Cl)ccc12)c1cccc(Cl)c1 [Compound 16, 2-[(7-Chloroquinolin-4-yl)sulfanyl]ethyl 3-chlorobenzoate]
- melting point: 94 to 96 °C

Compound: O=C(OCCCSc1ccnc2cc(Cl)ccc12)c1ccc(Cl)cc1Cl [Compound 34, 3-[(7-Chloroquinolin-4-yl)sulfanyl]propyl-2,4-dichlorobenzoate]
- melting point: 88 to 89 °C

Compound: COc1cc(OC)cc(C(=O)OCCCSc2ccnc3cc(Cl)ccc23)c1 [Compound 27, 3-[(7-Chloroquinolin-4-yl)sulfanyl]propyl-3,5-dimethoxybenzoate]
- melting point: 148 °C

Compound: O=C(OCCCSc1ccnc2cc(Cl)ccc12)c1ccccc1F [Compound 40, 3-[(7-Chloroquinolin-4-yl)sulfanyl]propyl-2-fluorobenzoate]
- melting point: 112 to 113 °C

Compound: COc1ccc(C(=O)OCCCSc2ccnc3cc(Cl)ccc23)cc1[N+](=O)[O-] [Compound 35, 3-[(7-Chloroquinolin-4-yl)sulfanyl]propyl-4-methoxy-3-nitrobenzoate]
- melting point: 138 to 140 °C

Compound: O=C(OCCCSc1ccnc2cc(Cl)ccc12)c1ccccc1Cl [Compound 32, 3-[(7-Chloroquinolin-4-yl)sulfanyl]propyl-2-chlorobenzoate]
- melting point: 100 to 102 °C

Compound: COc1ccccc1C(=O)OCCSc1ccnc2cc(Cl)ccc12 [Compound 22, 2-[(7-Chloroquinolin-4-yl)sulfanyl]ethyl-2-methoxybenzoate]
- melting point: 98 to 99 °C

Compound: Cc1cc(C)cc(C(=O)OCCCSc2ccnc3cc(Cl)ccc23)c1 [Compound 37, 3-[(7-Chloroquinolin-4-yl)sulfanyl]propyl-3,5-dimethylbenzoate]
- melting point: 136 to 138 °C

Compound: COc1ccc(C(=O)OCC[S+]([O-])c2ccnc3cc(Cl)ccc23)cc1 (centres unmarked) [Compound 42, 2-[(7-Chloroquinolin-4-yl)sulfinyl]ethyl-4-methoxybenzoate]
- melting point: 126 to 128 °C

Compound: COc1cccc(C(=O)OCCCSc2ccnc3cc(Cl)ccc23)c1OC [Compound 24, 3-[(7-Chloroquinolin-4-yl)sulfanyl]propyl-2,3-dimethoxybenzoate]
- melting point: 78 to 80 °C

Compound: COc1cc(C(=O)OCC[S+]([O-])c2ccnc3cc(Cl)ccc23)cc(OC)c1OC (centres unmarked) [Compound 46, 2-[(7-Chloroquinolin-4-yl)sulfinyl]ethyl-3,4,5-trimethoxybenzoate]
- melting point: 144 to 146 °C

Compound: COc1ccccc1C(=O)OCCCSc1ccnc2cc(Cl)ccc12 [Compound 31, 3-[(7-Chloroquinolin-4-yl)sulfanyl]propyl-2-methoxybenzoate]
- melting point: 95 to 97 °C

Compound: Cc1cc(C)cc(C(=O)OCCSc2ccnc3cc(Cl)ccc23)c1 [Compound 19, 2-[(7-Chloroquinolin-4-yl)sulfanyl]ethyl 3,5-dimethylbenzoate]
- melting point: 102 to 104 °C

Compound: COc1ccc(C(=O)OCCCSc2ccnc3cc(Cl)ccc23)c(OC)c1 [Compound 25, 3-[(7-Chloroquinolin-4-yl)sulfanyl]propyl-2,4-dimethoxybenzoate]
- melting point: 74 to 76 °C

Compound: O=C(OCCSc1ccnc2cc(Cl)ccc12)c1ccc(C(F)(F)F)cc1 [Compound 20, 2-[(7-Chloroquinolin-4-yl)sulfanyl]ethyl 4-(trifluoromethyl)benzoate]
- melting point: 134 to 136 °C

Compound: COc1ccc(C(=O)OCCSc2ccnc3cc(Cl)ccc23)c(OC)c1OC [Compound 12, 2-[(7-Chloroquinolin-4-yl)sulfanyl]ethyl 2,3,4-trimethoxybenzoate]
- melting point: 94 to 96 °C

Compound: Cc1ccc([N+](=O)[O-])c(C(=O)OCCCSc2ccnc3cc(Cl)ccc23)c1 [Compound 36, 3-[(7-Chloroquinolin-4-yl)sulfanyl]propyl-5-methyl-2-nitrobenzoate]
- melting point: 91 to 92 °C

Compound: COc1cccc(C(=O)OCC[S+]([O-])c2ccnc3cc(Cl)ccc23)c1OC (centres unmarked) [Compound 43, 2-[(7-Chloroquinolin-4-yl)sulfinyl]ethyl-2,3-dimethoxybenzoate]
- melting point: 110 °C

Compound: COc1ccc(OC)c(C(=O)OCCCSc2ccnc3cc(Cl)ccc23)c1 [Compound 26, 3-[(7-Chloroquinolin-4-yl)sulfanyl]propyl-2,5-dimethoxybenzoate]
- melting point: 97 to 98 °C

Compound: COc1ccc(C(=O)OCCSc2ccnc3cc(Cl)ccc23)cc1OC [Compound 10, 2-[(7-Chloroquinolin-4-yl)sulfanyl]ethyl 3,4-dimethoxybenzoate]
- melting point: 109 to 110 °C

Compound: COc1ccc(C(=O)OCCSc2ccnc3cc(Cl)ccc23)cc1 [Compound 5, 2-[(7-Chloroquinolin-4-yl)sulfanyl]ethyl-4-methoxybenzoate]
- melting point: 116 to 118 °C

Compound: COc1ccc(OC)c(C(=O)OCCSc2ccnc3cc(Cl)ccc23)c1 [Compound 8, 2-[(7-Chloroquinolin-4-yl)sulfanyl]ethyl-2,5-dimethoxybenzoate]
- melting point: 98 to 100 °C

Compound: COc1cc(OC)c(C(=O)OCCCSc2ccnc3cc(Cl)ccc23)cc1OC [Compound 29, 3-[(7-Chloroquinolin-4-yl)sulfanyl]propyl-2,4,5-trimethoxybenzoate]
- melting point: 118 to 120 °C

Compound: CC(C)(C)c1ccc(C(=O)OCCSc2ccnc3cc(Cl)ccc23)cc1 [Compound 21, 2-[(7-Chloroquinolin-4-yl)sulfanyl]ethyl-4-tert-butylbenzoate]
- melting point: 120 to 122 °C

Compound: COc1ccc(OC)c(C(=O)OCC[S+]([O-])c2ccnc3cc(Cl)ccc23)c1 (centres unmarked) [Compound 44, 2-[(7-Chloroquinolin-4-yl)sulfinyl]ethyl-2,5-dimethoxybenzoate]
- melting point: 112 to 113 °C

Compound: COc1cc(C(=O)OCCSc2ccnc3cc(Cl)ccc23)cc(OC)c1OC [Compound 14, 2-[(7-Chloroquinolin-4-yl)sulfanyl]ethyl 3,4,5-trimethoxybenzoate]
- melting point: 139 to 140 °C

Compound: COc1ccc(C(=O)OCCCSc2ccnc3cc(Cl)ccc23)cc1 [Compound 23, 3-[(7-Chloroquinolin-4-yl)sulfanyl]propyl-4-methoxybenzoate]
- melting point: 106 to 108 °C

Compound: Cc1ccc([N+](=O)[O-])c(C(=O)OCCSc2ccnc3cc(Cl)ccc23)c1 [Compound 18, 2-[(7-Chloroquinolin-4-yl)sulfanyl]ethyl 5-methyl-2-nitrobenzoate]
- melting point: 93 to 95 °C

Compound: CC(C)(C)c1ccc(C(=O)OCCCSc2ccnc3cc(Cl)ccc23)cc1 [Compound 39, 3-[(7-Chloroquinolin-4-yl)sulfanyl]propyl-4-tert-butylbenzoate]
- melting point: 88 to 90 °C

Compound: COc1cc(C(=O)OCCCSc2ccnc3cc(Cl)ccc23)cc(OC)c1OC [Compound 30, 3-[(7-Chloroquinolin-4-yl)sulfanyl]propyl-3,4,5-trimethoxybenzoate]
- melting point: 98 to 100 °C

Compound: COc1ccc(C(=O)OCCCSc2ccnc3cc(Cl)ccc23)c(OC)c1OC [Compound 28, 3-[(7-Chloroquinolin-4-yl)sulfanyl]propyl-2,3,4-trimethoxybenzoate]
- melting point: 84 °C

Compound: COc1ccc(C(=O)OCCSc2ccnc3cc(Cl)ccc23)c(OC)c1 [Compound 7, 2-[(7-Chloroquinolin-4-yl)sulfanyl]ethyl 2,4-dimethoxybenzoate]
- melting point: 107 to 108 °C

Compound: O=C(OCCSc1ccnc2cc(Cl)ccc12)c1ccccc1Cl [Compound 15, 2-[(7-Chloroquinolin-4-yl)sulfanyl]ethyl 2-chlorobenzoate]
- melting point: 108 °C

Compound: O=C(OCCCSc1ccnc2cc(Cl)ccc12)c1ccc(C(F)(F)F)cc1 [Compound 38, 3-[(7-Chloroquinolin-4-yl)sulfanyl]propyl-4-(trifluoromethyl)benzoate]
- melting point: 122 to 124 °C

Compound: COc1cccc(OC)c1C(=O)OCCSc1ccnc2cc(Cl)ccc12 [Compound 9, 2-[(7-Chloroquinolin-4-yl)sulfanyl]ethyl 2,6-dimethoxybenzoate]
- melting point: 116 to 118 °C

Compound: COc1cc(OC)c(C(=O)OCC[S+]([O-])c2ccnc3cc(Cl)ccc23)cc1OC (centres unmarked) [Compound 45, 2-[(7-Chloroquinolin-4-yl)sulfinyl]ethyl-2,4,5-trimethoxybenzoate]
- melting point: 151 to 153 °C
